Tests used:
Format in all cases: functional, cell-based
SF-268 = experiment: Cytotoxicity against human SF268 cells by SRB method
HepG2 = experiment: Cytotoxicity against human HepG2 cells by SRB method
MCF7 = experiment: Cytotoxicity against human MCF7 cells by SRB method
NCI-H460 = experiment: Cytotoxicity against human NCI-H460 cells by SRB method

| SMILES | IC50 (SF-268) [µM] | IC50 (HepG2) [µM] | IC50 (MCF7) [µM] | IC50 (NCI-H460) [µM] |
| --- | --- | --- | --- | --- |
| C[C@@H]1NC(=O)[C@H](Cc2c[nH]c3ccccc23)NC1=O | > 100 | > 100 | > 100 | > 100 |
| O=C1N[C@@H](Cc2c[nH]c3ccccc23)C(=O)N[C@H]1CO | > 100 | > 100 | > 100 | > 100 |
| C[C@H]1C(=O)N[C@@H](Cc2c[nH]c3ccccc23)C(=O)N1C | > 100 | > 100 | > 100 | > 100 |
| CN1C(=O)[C@]23SSS[C@@]1(C)C(=O)N2[C@H]1Nc2ccccc2[C@]1(c1c[nH]c2ccccc12)[C@@H]3O | 2.49 | 2.03 | 0.65 | 17.8 |
| CN1C(=O)[C@]23SS[C@@]1(C)C(=O)N2[C@H]1Nc2ccccc2[C@]1(c1c[nH]c2ccccc12)[C@@H]3O | 0.73 | 0.53 | 0.23 | 6.57 |
| CN1C(=O)[C@]23SSS[C@]1(CO)C(=O)N2[C@H]1Nc2ccccc2[C@@]1(c1c[nH]c2ccccc12)[C@@H]3O | 1.04 | 3.52 | 0.91 | 5.6 |
| CS[C@]1(Cc2c[nH]c3ccccc23)NC(=O)[C@](CO)(SC)N(C)C1=O [CHETOSEMINUDIN B] | > 100 | > 100 | > 100 | > 100 |
| CS[C@]1(CO)NC(=O)[C@](Cc2c[nH]c3ccccc23)(SC)NC1=O [CHETOSEMINUDIN C] | > 100 | > 100 | > 100 | > 100 |
| CN1C(=O)[C@@]23C[C@@]4(c5c[nH]c6ccccc56)c5ccccc5N[C@@H]4N2C(=O)[C@]1(CO)SS3 [LUTEOALBUSIN A] | 0.46 | 0.91 | 0.23 | 1.15 |
| CN1C(=O)[C@@]23C[C@@]4(c5c[nH]c6ccccc56)c5ccccc5N[C@@H]4N2C(=O)[C@]1(CO)SSS3 [LUTEOALBUSIN B] | 0.59 | 1.29 | 0.25 | 1.31 |
